Data as given in patent US5407925A (priority 1991, dated 1995).

Tests used:
cells in vitro = conditions: compared with 4-hydrocyclophosphamide, Redwood et al. 1982; cited from earlier work
[1] = system: rhabdomyosarcoma cell line; conditions: cited from earlier work
TE-671 [2] = assay: intrathecal treatment of subarachnoid TE-671 human medulloblastoma xenografts in nude rats; format: in vivo, Female athymic nude rats; human medulloblastoma cell line; conditions: for loss of antigravity strength / increase in median survival: intrathecal
TE-671 [3] = conditions: medulloblastoma cell line TE-671; cited from earlier work
murine leukemia cells = conditions: Hilton 1984; cited from earlier work
[4] = system: human breast cancer cells; conditions: Kubota et al. 1983; cited from earlier work
[5] = clinical evidence of toxicity of intrathecal treatment in tumor-bearing nude rats; conditions: either dose (final concentration 100 uM or 250 uM)
[6] = direct intrathecal administration, 100 uM in the cerebrospinal fluid; cited from earlier work
[7] = system: Burkitt's lymphoma cell lines; conditions: De Fabritiis et al. 1985; cited from earlier work
McF-7 = conditions: breast cancer cell line McF-7; cited from earlier work
MOLT-4 = MOLT-4 (a T-cell leukemia); cited from earlier work
[8] = final concentration 250 uM, p less than 0.01

## O=P1(N(CCCl)CCCl)NC(OO)CCO1 (stereo not shown) [4-HC, 4-hydroperoxycyclophosphamide]
Cells in vitro
  toxicity on a molar basis to cells in vitro versus 4-hydrocyclophosphamide: equal toxicity on a molar basis
[1]
  concentration at which active: 8 µM
TE-671 [2]; both treatment studies (100 uM and 250 uM)
  time by which loss of stepping and placing reflexes and ramp climbing ability preceded death: approximately 3 days
TE-671 [2]; final CSF concentration 100 uM, day 8 after tumor inoculation, p=0.036
  loss of antigravity strength: delay in the loss of antigravity strength
TE-671 [2]; final CSF concentration 100 uM, day 8 after tumor inoculation, p=0.04
  increase in median survival: 20%
TE-671 [2]; [8]
  increase in median survival: 36%
  loss of antigravity strength: further delay in the loss of antigravity strength
TE-671 [2]; sections from all animals, 4-HC-treated and saline-treated control groups, base of the brain to the cauda equina
  histopathology after death: subarachnoid tumor infiltrate: diffuse subarachnoid infiltrate of tumor cells
TE-671 [3]
  concentration at which active: 12.8 µM
Murine leukemia cells
  activity in vitro: active in vitro
[4]
  activity in vitro: active in vitro
[5]
  clinical evidence of toxicity: no clinical evidence of toxicity
[6]
  toxicity: without producing toxicity
[7]
  activity in vitro: active in vitro
McF-7
  concentration at which active: 9.5 µM
MOLT-4
  concentration at which active: 2.5 µM
